According to US20150320787A1, “COBALAMIN COMPOSITIONS AND METHODS FOR TREATING OR PREVENTING MUCOSITIS” (OraHealth Corp., priority 2006, published 2015):

Tests used:
[1] = Placebo-controlled test of adhering dissolving discs, one each day, in subjects with minor RAU at least monthly; format: in vivo, human; settings: active group, seven subjects, discs with 500 mcg methylcobalamin, 30 discs, placebo discs with red food coloring
Source text: (§1) Troches in the form of dissolving muco-adhesive tablets may be made by pressing powders including mucoadhesive hydrocolloids. A preferred form of such an adhering troche may be made by mixing dry powders consisting of 80 percent acacia gum (gum arabic) for adhesive and 20 percent xylitol for flavor, then adding up to 1 percent carboxymethylcellulose (CMC), to enhance mouth feel, moderate adhesiveness of the acacia gum, and slow dissolution, and about 500 micrograms of cobalamin. The tablet may be pressed into the shape shown in FIG. 3 for good adhesion to a tooth. Such a tablet is suitably about 8 mm in diameter and about 85 milligrams in weight.
(§2) The typical instruction to users is to stick a troche in their mouths, just before they go to sleep, between teeth and cheek, placing it on the tongue side of the teeth if the patient suffers particularly from ulcers on or under the tongue and otherwise placing it on the cheek side. In greater detail, the instructions state: “Use after brushing teeth, at least one disc per day, and allow to dissolve for 30 minutes with nothing else in your mouth. In an area of your mouth where you experience sores, use your tongue to hold the dimpled side of the disc against a tooth until it adheres. The disc will slowly dissolve over 10 to 40 minutes, releasing cobalamin which is absorbed directly into the mouth lining tissues. […]

[2] = Non-blinded test of active adhering dissolving discs in additional subjects; format: in vivo, human
Source text: as §1, §2

C/C1=C2/[N-][C@H]([C@H](CC(N)=O)[C@@]2(C)CCC(=O)NC[C@@H](C)OP(=O)([O-])O[C@H]2[C@@H](O)[C@@H](n3cnc4cc(C)c(C)cc43)O[C@@H]2CO)[C@]2(C)N=C(/C(C)=C3N=C(/C=C4N=C1[C@@H](CCC(N)=O)C\4(C)C)[C@@H](CCC(N)=O)[C@]\3(C)CC(N)=O)[C@@H](CCC(N)=O)[C@]2(C)CC(N)=O.[CH3-].[Co+3] [methylcobalamin]
subjects who reported a benefit (reduced frequency of minor RAU, reduced duration of ulcers, or reduced peak pain levels) [1]: 100%
time after stopping the discs until an ulcer with a pain level like before starting (mean) ([2]; five subjects who reported a benefit and stopped using the discs): 4.8 days
subjects who reported a benefit of using the discs ([2]; twenty-five additional non-blinded subjects, active discs with 500 mcg methylcobalamin): 96%
